Patent US7589080B2, “β-cyclodextrin compositions, and use to prevent transmission of sexually transmitted diseases” (priority 2000, dated 2009)

Experiments:
Assay type in all cases: cell-based
CD4 = test: Flow cytometry of CD4 surface expression
Method: (§1) Flow cytometry was performed as previously described (Orentas and Hildreth, supra, 1993). Briefly, 2×10^5 2-OH-βCD treated or untreated cells in 100 μl PBS containing 5% normal goat serum (NGS) were added to 100 μl of MAb (1-5 μg) and incubated 30 min on ice. In comparative experiments we prefixed the cells with 2% paraformaldehyde in PBS immediately after 2-OH-βCD treatment. Cells were washed with PBS, resuspended in 100 μl of PBS, 5% NGS containing 2 Tg of FITC conjugated-goat anti-mouse IgG (FITC-GAM) and incubated 1 h on ice. Cells were then washed with PBS and fixed with 2% paraformaldehyde followed by analysis on an EPICS Profile II flow cytometer.
(§2) Cholesterol depletion also promoted CXCR4 down-modulation by MAb-induced internalization. A possible explanation for the inhibition of syncytium formation by cholesterol depletion as described above is that CD4, CRs, or both are lost from the cell surface, for example, by extrusion from the membrane in vesicles after loss of cholesterol, or they could be internalized. To explore these possibilities, βCD treated cells were examined for expression of HIV receptors by flow cytometry. […] In contrast, cell surface expression of CXCR4 was reduced by 50% or more in all of the cells after 2-OH-βCD treatment (Table 1).
In order to determine whether the loss of CXCR4 expression was due to MAb-induced internalization, cells were fixed with 2% paraformaldehyde in PBS immediately after 2-OH-βCD treatment and before staining with MAbs for flow cytometry.

[1] = tested on: HIV-1RF chronically infected Jurkat cells; test: Virus precipitation with MAbs after β-cyclodextrin treatment of infected cells
Method: Infected Jurkat cells (3×10^6) were treated with 20 mM hydroxypropyl-β-cyclodextrin (2-OH-βCD; Cyclodextrin Technologies Development, Inc.; Gainesville Fla.) in 3 ml of cRPMI or with cRPMI alone for 1 hr at 37° C. Cells were washed with PBS, then allowed to produce virus in 3 ml of cRPMI at 37° C. for 2 hr. Viral supernatants were clarified through a 0.45 Tm filter, and […] of MAb (10 mg/ml) in 5% NGS-PBS, and the mixture was incubated for 1 hr on ice. Pansorbin (SaC) (50 mg; Calbiochem; San Diego Calif.) was added to the solution and incubated for 20 min on ice. Complexes were washed sequentially with 10X and 1X PBS. Precipitated virus was lysed with […] of 1% Triton X-100 in cRPMI. Lysates were diluted, and p24 was quantitated by standard p24 ELISA.
The effects of 2-OH-βCD, a cellular cholesterol efflux inducing molecule, on the incorporation of host molecules into virions also was examined. By removing cholesterol, 2-OH-βCD is believed to partially perturb organized lipid rafts, resulting in dispersal of their components (Ilangumaran and Hoessli, Biochem. J. 335:433-440, 1998).

CCR5 = test: Flow cytometry of CCR5 expression on primary T cells; conditions: primary T cells after treatment (19% before)
Method: as §1, §2

[2] = tested on: CD4+ HIV-susceptible target cells; test: Cell viability, growth and function after 2-OH-βCD treatment
From the text: The role of lipid rafts in the HIV-1 fusion process was examined by treating CD4+HIV-susceptible target cells with 2-OH-βCD to deplete membrane cholesterol and disperse lipid rafts.
Loss of CXCR function in regulating LFA-1 could also explain the lower binding of HIV-1 to βCD-treated cells observed previously (Liao et al., supra, 2000; Orentas and Hildreth, supra, 1993). […] The ability of βCD treatment of cells to affect control of LFA-1 function by CXCR4 also was examined. Jurkat cells were treated with 2-OH-βCD or medium alone, then were added to the wells of culture plates coated with soluble recombinant ICAM-Ig. SDF-1, a CXCR4-specific chemokine that triggers LFA-1 function, was added to trigger binding of LFA-1 to ICAM-1. Control cells responded to SDF-1 and, as expected, bound very well to ICAM-Ig. […] CXCR4-specific gp120 triggers the same responses through CXCR4 as SDF-1 (Iyengar et al., J. Immunol. 162:6263-6267, 1999).
βCD treatment blocks HIV-1 virus infection. HIV-1 can spread in cell cultures without necessarily exerting cytopathic effects. […] To test the effects of cholesterol depletion on HIV-1 infection of primary T cells by free virus, PHA blasts were treated with 10 mM 2-OH-βCD or medium alone, then were exposed to HIV-1 for 2 hr before washing to remove input virus. Viability and growth of the PHA blasts was not affected by treatment with the βCD under the conditions used. P24 release was measured after an addition 6 days in culture. Two primary strains of HIV-1, 97.099 and 97.534, M-tropic (R5) and dual-tropic (X4R5), respectively, were tested.
The effects of βCD treatment on HIV infectivity were measured in a sensitive single-cycle infection assay based on a cell line transfected with an LTR-luciferase cassette. […] Quantitative measurements of single round infection are obtained with this assay system (Roos et al., Virology 273:307-315, 2000, which is incorporated herein by reference). Viability of LuSIV cells as determined by trypan blue exclusion and proliferation was not affected by 2-OH-βCD treatment. βCD treatment of LuSIV cells reduced HIV infection by almost 100%, and the effects were readily seen at all viral input levels.

[3] = infected Jurkat cells treated with 20 mM for 1 hr at 37° C, P<0.05

2-hydroxypropyl-β-cyclodextrin [2-OH-βCD]
CD4 (MCF) (CD4; H9, 20 mM, fixed with 2% paraformaldehyde immediately after treatment): 50 MCF
CD4 (MCF) (CD4; H9 cells, 20 mM, not fixed before staining): 20.9 MCF
CD4 (MCF) (CD4; MT2 cells, 20 mM, not fixed before staining): 62.2 MCF
CD4 expression after treatment (CD4; PHA blasts or any of the cell lines tested): did not change
CD4 (MCF) (CD4; PM1, 20 mM, fixed with 2% paraformaldehyde immediately after treatment): 129 MCF
CD4 (MCF) (CD4; PM1 cells, 20 mM, not fixed before staining): 85.9 MCF
CD4 (MCF) (CD4; SupT1, 20 mM, fixed with 2% paraformaldehyde immediately after treatment): 213 MCF
CD4 (MCF) (CD4; SupT1 cells, 20 mM, not fixed before staining): 188.3 MCF
CD4 expression on the cell surface (CD4; cells fixed immediately after treatment, before MAb staining): remained unchanged
Overall cellular release of p24 ([1]; infected Jurkat cells after treatment): increased
CD45 capture of HIV-1 ([1]; infected Jurkat cells treated with 20 mM for 1 hr at 37° C): remained mostly unaffected
Capture of HIV-1 by MAb against CD59, percentage of total p24 [1, 3]: decreased substantially
Capture of HIV-1 by MAb against gp41, percentage of total p24 [1, 3]: decreased substantially
Decrease in capture of HIV-1 through Thy-1 ([1]; infected Jurkat cells treated with 20 mM for 1 hr at 37° C, P=0.08): not statistically significant
CCR5 expression, cells staining positive (CCR5): 8%
Viability and growth of the PHA blasts ([2]; 10 mM): not affected
Cell viability by Trypan Blue exclusion ([2]; 10 to 20 mM for 1 hr at 37° C): without any loss in cell viability
Cell viability ([2]; Jurkat cells, adhesion assay): no effect on cell viability
Viability of LuSIV cells by trypan blue exclusion and proliferation ([2]; LuSIV cells): not affected
Cell growth after treatment ([2]; placed back into culture in cholesterol-containing medium): continued to grow normally
Ca2+ flux responses to anti-CD3 MAb ([2]; treated Jurkat cells): still showed Ca^2+ flux responses
